# Measured values taken from patent US20110104780A1, “ENCAPSULATION OF LIVING CELLS WITHIN AN AEROSOLIZED SOL-GEL MATRIX” (PURDUE RESEARCH FOUNDATION, priority 2008, published 2011).
# Tested on: cells coated with sol-gel vapor
# Test: Proton efflux at the cellular surface, self referencing electrode
# Format: cell-based
# Conditions: 48 hours after coating cells with sol-gel vapor
# Description: Data relating to oxygen influx and proton efflux were collected using a self referencing electrode apparatus.
# Proton efflux is the result of a variety of cellular properties including metabolism.
row,Molecule,proton efflux after addition of metabolic disrupter
1,[N-]=[N+]=[N-].[Na+] [NaN3],decreasing efflux
2,CC[C@H]1/C=C/C=C/C[C@@H](C)[C@H](O)[C@@](C)(O)C(=O)[C@@H](C)[C@H](O)[C@@H](C)C(=O)[C@@H](C)[C@H](O)[C@@H](C)/C=C/C(=O)O[C@@H]2[C@H](C)[C@H](CC1)O[C@]1(CC[C@H](C)[C@H](C[C@@H](C)O)O1)[C@H]2C [oligomycin],decreasing efflux
3,antimycin A,increasing efflux
